# Data: patent US10233201B2, “Class of HDAC inhibitors expands the renal progenitor cells population and improves the rate of recovery from acute kidney injury” (University of Pittsburgh—Of the Commonwealth System of …, priority 2012, dated 2019)
# pEC50: −log10 of the molar value. Values joined by “and” are separate entries in the source; they are usually repeats but may differ in a detail not shown here. Identical values can stand only once. “Also recorded” adds a separate entry of the source.
# Experiments:
# [1] = cited from earlier work
# [2] = test system: zebrafish larvae; experiment: Phenotypic scoring of edema and survival in zebrafish larvae at 72 hpf; type: in vivo
# Description: (§1) PTBA was synthesized as described below. Hydroxyurea and aphidicolin were obtained from Sigma-Aldrich.
# Wild type: no visible edema or developmental delay.
# [3] = test system: renal progenitor cells (lhx1a expression); experiment: In situ hybridization for lhx1a expression in 10-somite embryos (renal progenitor cell expansion); type: in vivo
# Procedure: as §1
# (§2) In situ hybridization and immunocytochemistry: In situ hybridization was performed as previously described with some modifications. 142 Hybridization temperature was 65° C. Embryos were blocked in 2% blocking reagent (Roche) with 5% sheep serum in MAB (100 mM maleic acid and 150 mM NaCl [pH 7.5]). Whole-mount immunocytochemistry with 1:25 mouse anti-α6F antibody (Developmental Studies Hybridoma Bank) and 1:100 Cy3 secondary antibody (Jackson ImmunoResearch) was performed as described previously. 108 Embryos were embedded in JB-4 for sectioning per the manufacturer's instructions (Polysciences), sectioned at 5 μm, and mounted with Cytoseal 60 (Richard-Allan Scientific).
# The remaining PTBA analogs were synthesized.
# In situ hybridization for lhx1a was performed as described above. […] Compounds were classified as effective, partially-effective or ineffective based on comparison to the effects of PTBA at a given concentration.
# Testing of the compounds is on-going, but for those tested, Table 3 provides first pass EC50s based upon colormetric in situ hybridizations for the Lhx1a mRNA expression levels. After the procedure is run, in situ hybridization is done for the lhx1 mRNA expression and the number of embryos that show an expanded kidney field is manually counted to establish the percent of embryos showing expansion. Then the EC50 is determined by plotting the percent expansion in Excel, graphing the results and using the trendline function to determine the 50 percent point. […] For UPHD-00186, the 4 values for EC50 are shown in Table 3 for the corresponding expression in zebrafish embryos employed an artificial intelligence-based image analysis method termed cognition network technology (CNT) for n=4.
# [4] = test system: myod1 (somites), fli1a (vasculature), ntla (notochord); experiment: In situ hybridization for mesodermal markers myod1, fli1a, ntla in 10-somite embryos; type: in vivo, zebrafish
# Procedure: as §1, §2
# [5] = test system: human HDACs (HeLa cell nuclear extract); experiment: Fluorescence histone deacetylation assay with HeLa cell nuclear extract; type: biochemical; details: 1 μM TSA, all input levels of nuclear extract
# Procedure: To evaluate this in vitro, the deacetylation of a fluorescent peptide substrate was measured in the presence of human HDACs.
# In vitro HDAC activity assays were performed using a fluorescence HDAC assay kit (Active Motif) according to the manufacturer's instructions. For maintaining compound solubility at 5 mM, the final DMSO concentration in all assay wells was increased to 5%. Fluorescence was detected using an M5 Plate Reader ([…])
# [6] = test system: histone H4 acetylation; experiment: Histone H4 hyperacetylation Western blot in embryos; type: in vivo, zebrafish; details: 24 hpf embryos treated 6 hours; 3 μM PTBA, 25 μM PBA, 200 nM TSA
# Procedure: It was next determined whether the HDACi function of PTBA was quantifiable in vivo. 24 hpf embryos were treated with 3 μM PTBA, 25 μM PBA, or 200 nM TSA for 6 hours. Protein extracts were prepared and immunoblotted with an anti-hyperacetylated histone H4 antibody. […] Furthermore, increasing the compound concentration caused a corresponding increase in hyperacetylation (FIG. 21).
# SDS-PAGE and Western blotting were performed as described previously with some modifications (Noel, E. S. et al. Organ-specific requirements for Hdac1 in liver and pancreas formation. Dev Biol 322, 237-250, (2008)). Proteins were separated on 18% SDS-PAGE gels. Membranes were incubated at 4° C. overnight with 1:1000 anti-hyperacetylated histone H4 antibody (06-946, Millipore) or 1:1000 anti-α-tubulin antibody (Sigma-Aldrich) in PBT containing 5% nonfat milk.
# [7] = test system: kidney field (cad17:EGFP); experiment: Image-based high-content screen, Tg(cad17:EGFP) embryos, CNT analysis; type: in vivo, zebrafish; details: 4 individual values (n=4)
# Description: Initial studies, above, used a phenotypic marker of the ability to expand the renal progenitor cell field in larval zebrafish, and identified the first member of a novel class of HDAC inhibitors, PTBA as well as a few structural and functional analogs. These findings form the basis for further study. However, this technology is limited as it is dependent on subjective interpretation of a subtle phenotypic change in the fish. Therefore, in order to develop a more objective and higher content screen, we developed an image-based high-content screen using transgenic zebrafish (Vogt A, et al. Automated image-based phenotypic analysis in zebrafish embryos. Dev Dyn. 2009; 238(3):656-63). […] Tg(Cad17:EGFP) zebrafish is a transgenic line that was prepared by isolation of an approximately 5 kb (5066 bp) promoter element and approximately 3 kb (3221 bp) first intron element from the cadherin 17 locus, cloning it into a plasmid along with the enhanced GFP open reading frame and injecting if into zebrafish embryos to established transgenic lines using the meganuclease transgenesis method (Soroldoni et al., Simple and efficient transgenesis with meganuclease constructs in zebrafish, Methods Mol Bio 2009; 546: 117-30.). […]
# For all second-generation compounds, the cad17:EGFP transgene is used as the primary readout to assay for expansion of kidney field (FIG. 35). […]
# [8] = test system: BALB/c mice, severe IR-AKI; experiment: Severe ischemia-reperfusion AKI (IR-AKI); type: in vivo, mouse
# Procedure: Surgeries were performed on a water-bath heated platform at 38° C. on 10-12 week old male BALB/c mice. For moderate IR-AKI, mice underwent a right nephrectomy followed by left renal pedicle clamping (800 μm pressure clamp, FST 18052-03). The clamp was released after 26 minutes, and tissue reperfusion was confirmed before completing the surgery. Mice were treated daily with indicated doses of compounds or equivalent volume of 20% 2-hydroxypropyl-β-cyclodextrin in water as vehicle control starting 24 h after injury. Since initial injury with this model is variable, mice were randomly allocated vehicle or m4PTB treatment if their serum creatinine levels were 0.8 to 1.2 mg/dl 24 h post IR injury. Other mice were excluded from further analysis and euthanized. To induce severe IR-AKI, mice underwent left renal pedicle clamping for 30 minutes and delayed contralateral nephrectomy was performed after 8 days.
# For mouse studies, kidney sections were stained using Periodic Acid-Schiff (PAS) to assess renal tubular injury. Tubular injury (casts, dilated tubules, epithelial cell blebbing, and vacuolization, loss of brush borders or nuclei) was scored as described. Sirius red staining was performed using an established protocol used to evaluate renal fibrosis/collagen accumulation in kidney sections. To quantify Sirius red staining we used an Olympus BX-41 microscope equipped with an Olympus DP-72 digital camera system and polarizing light filter. Results are expressed as the mean percent fibrosis for all of the images per slide region (Sirius red positive/total surface area).
# We used of 2-hydroxypropyl-β-cyclodextrin (CD, Sigma), a low toxicity drug formulation vehicle that has been well characterized and used extensively as a hydrophobic drug delivery vehicle. We could achieve concentrations of up to ˜12 mg/ml of PTBA analogues in 20% CD in water (100 mg/kg in volumes of ˜150-250 μl), and daily IP injections with 200 μl 20% CD in water had no effect on renal functional recovery following IR-AKI. Therefore all studies were performed using compounds dissolved in 20% CD. To assess dosing and biological activity of PTBA analogues in mice, CD1 mice were injected with varying doses of compounds IP and kidneys isolated at different time point for histone extraction and analysis of histone H4 acetylation, a marker of HDAC inhibitor activity, as outlined below. Based on results of these studies, mice were treated daily with 1, 10, 50 or 100 mg/kg of compound or equivalent volume of 20% CD vehicle control starting 24 h after injury.
# ˜30 μl blood was obtained by tail vein bleed at different time points, and serum samples frozen after confirming that they had not undergone hemolysis (which interferes with enzymatic analysis for serum creatinine). Serum creatinine was evaluated in duplicate samples using a commercially available enzymatic cascade assay (Pointe Scientific, requires only ˜7 μl of serum). […] Blood Urea Nitrogen (BUN) was determined in duplicate samples using a colorimetric enzymatic assay kit (Infinity Urea, Thermo Scientific), and spot urinary albumin/creatinine ratios determined using a mouse albumin ELISA and urinary creatinine assay kit (Albuwell and Creatinine Companion, Exocell).
# Compounds 22, 25, 29, 36, and 186 were injected for 7 days at […] starting 24 hrs after severe IR treatment. […] Fibrotic (scar) tissue was measured using Sirus Red after 28 days for various markers of fibrosis.
# [9] = test system: mouse models of unilateral ureteral obstruction (UUO); experiment: Unilateral ureteral obstruction (UUO); type: in vivo
# Description: The model of unilateral ureteral obstruction generates progressive renal fibrosis. Surgically created UUO can be experimentally manipulated with respect to timing, severity, and duration, while reversal of the obstruction permits the study of recovery.
# FIG. 47 represents the results of the testing of compounds UPHD-00022, UPHD-00025 (PTBA), UPHD-00029, UPHD-00036, and UPHD-00186, for their efficacy in mouse models of unilateral ureteral obstruction (UUO) as follows: in the UUO models, one ureter was ligated for 7 days and compounds were delivered via IP for days 0 to 6. At day 7 kidneys were harvested for Sirius red staining. […] Therefore, in the models tested, the only compound proven to be effective in all models and with significant delayed onset of treatment is UPHD-186.
# [10] = 7 days at 50 mg/ml starting 24 hrs after severe IR
compound,measurement,setting,value
O=C(O)CCCc1ccccc1 [Buphenyl],half-life (t1/2),[1]; following administration,~1 h
same,bioavailability,[1]; taken orally,about 80%
"CC(/C=C/C(=O)NO)=C\[C@@H](C)C(=O)c1ccc(N(C)C)cc1 [TSA, trichostatin A]",treated 72 hpf larvae killed,[2]; 300 nM,greater than 90%
same,larval phenotype in phenotypic screen of analogs,"[2]; 3 μM, 2 to 72 hpf",generated edemic and/or lethal phenotypes
same,death (lethality) by 72 hpf,"[2]; 25 μM PBA, 200 nM TSA, n=90",61%
same,larvae with edemic phenotype / pericardial edema at 72 hpf,"[2]; treated from 2 hpf, 3 μM PTBA, 25 μM PBA, 200 nM TSA",100%
same,embryos with expanded lhx1a expression (% expansion),[3]; 100 nM,97%
same,"lhx1a expansion class, 100 nM",[3]; 100 nM from 2 hpf,+
same,embryos with expanded lhx1a expression (% expansion),[3]; 200 nM,100%
same,"lhx1a expansion class, 200 nM",[3]; 200 nM from 2 hpf,+
same,lethality before the 10-somite stage,[3]; 400 nM,died before reaching 10 somites
same,lethality before the 10-somite stage,[3]; 800 nM,lethal
same,lethality before the 10-somite stage,[3]; 1.5 μM,lethal
same,lethality before the 10-somite stage,[3]; 3 μM,killed all treated embryos
same,concentration producing lhx1a expansion consistent with 3 μM PTBA,[3]; 10-somite embryos,200 nM
same,embryos with disrupted normal ntla expression,[4]; 200 nM,86%
same,embryos with decreased myod1 expression,"[4]; 3 μM PTBA (slightly decreased), 25 μM PBA, 200 nM TSA",100%
same,embryos with decreased fli1a expression,"[4]; 25 μM PBA, 200 nM TSA",95%
same,effect on HDAC activity,[5],completely blocked activity; also recorded: inhibit all HDAC activity
same,histone H4 hyperacetylation,[6],hyperacetylation was observed
"O=C(CCCSc1ccccc1)Nc1ccccc1O [UPHD-00186, N-(2-hydroxyphenyl)-4-(phenylsulfanyl) butanamide]",pEC50,[7],6.19 and 6.09
same,pEC50,[7]; Danio rerio,6.23
same,"fibrosis after 28 days (Sirus Red, markers of fibrosis)",[8]; [10],most reduction in fibrosis
same,serum creatinine at day 9,[8]; [10],better activity
same,effect of timing of treatment in severe IR-AKI,[8]; FIG. 46,has still a significant effect on IR-AKI after more than 7 days
same,post injury fibrosis with delayed treatment,"[8]; treatment 3 days after IR-AKI, FIG. 48",still markedly reduces post injury fibrosis
same,reduction in post injury fibrosis at various dosages,"[8]; various dosages, FIG. 45",efficient at elevated doses
same,fibrosis (Sirius red) and expression of fibrosis markers in UUO kidney,"[9]; IP days 0 to 6, kidneys harvested at day 7",reduce both fibrosis and expression of fibrosis markers
same,prevention of post injury fibrosis in UUO compared with Vorinostat (SAHA),"[9]; mouse, in vivo",more effective than the FDA approved HDACi drug Vorinostat (SAHA)
